The source of these data is patent US12721832B2, “Anti-senescence plant polyphenol drug downregulating senescence-related secretory phenotype and use thereof” (BYHEALTH CO., LTD., priority 2021, dated 2026).

The test system of test [1] is PC3/PSC27 xenograft tumors. In words: Disease-free survival of tumor-bearing NOD/SCID mice. The test is classed as in vivo. As to conditions: PCC1 alone. From the text: When the tumor volume in the vehicle, MIT, PCC1 and MIT/PCC1 groups exceeds 2000 mm^3, it is considered that severe disease has occurred, and the mice need to be killed in time and the tumor bearing status should be detected. ^, P>0.05; **, P<0.01.
We next compared the survival of animals in different drug-treated groups, primarily in a time-prolonged manner to assess the consequences of tumor progression. In this preclinical cohort, animals were monitored for prostate tumor growth, and severe disease was judged to have occurred once the […] tumor burden in mice was prominent (size ≥2000 mm^3), which was a method used for assessing progression of tumors and other diseases in certain conditions.

In test [2] the test system is PC3/PSC27 xenograft tumors. In words: PC3/PSC27 xenograft tumor terminal volume in NOD/SCID mice. The test is classed as in vivo. As to conditions: end of 8th week. The source says: Every two weeks was a dosing cycle, and MIT (mitoxantrone) was intraperitoneally administered to the mice on the first day of the 3rd/5th/7th weeks. From the first day of the 5th week, the mice were intraperitoneally administrated with PCC1, once a week. After the 8-week course of treatment, the mice were dissected for pathological identification and expression analysis.
Chemotherapeutic drug MIT alone or together with anti-senescence drug PCC1 was used to administer mice, and after the 8th week, the tumor size of each group was compared and analyzed.
All experimental mouse experiments were carried out in strict accordance with the relevant regulations of the Institutional Animal Care and Use Committee (IACUC), Shanghai Institutes for Biological Sciences, Chinese Academy of Sciences. Immunodeficient mice (NOD-SCID mice, ICR) (body weight about 25 g) aged 6-8 weeks were used for animal experiments related to the present patent. Stromal cells PSC27 and epithelial cells PC3 were mixed at a predetermined ratio of 1:4, and each graft contained 1.25×10^6 cells for tissue remodeling. The xenograft tumors were implanted into mice by subcutaneous transplantation, and the animals were euthanized 8 weeks after the end of the transplantation surgery. Tumor volume was calculated according to the following formula: V=(π/6)×[…] (V, volume; l, length; w, width).
In a preclinical treatment trial, subcutaneously transplanted mice were fed with a standard experimental diet, after 2 weeks chemotherapy drugs mitoxantrone (MIT, dose: 0.2 mg/kg) and/or procyanidin C1 (PCC1) (500 μl, dose: 10 mg/kg) via intraperitoneal administration. The time points were: the former was administrated on the first day of the 3rd, 5th and 7th weeks, and the latter was administrated on the first day of the 5th and 7th weeks. A total of 3 cycles of MIT administration were carried out throughout the course of treatment, and each cycle lasted for 2 weeks. After the course of treatment, mouse tumors were harvested for volume measurement and histological analysis. Each mouse cumulatively received 0.6 mg/kg body weight of MIT and […] body weight of PCC1. In order to cause systemic expression of SASP factor induced by chemotherapy, MIT was administered to mice through […] according to the above steps and sequence, but the dose was reduced to 0.1 mg/kg body weight/each time (the cumulative dose of MIT received in the whole course of treatment was 0.3 mg/kg body weight) to reduce drug-related toxicity. The chemotherapy experiment ended at the end of the 8th week, and the mice were dissected immediately after sacrifice, and the xenograft tumors were collected and used for pathological system analysis.

Test [3] deals with cancer cells in the lesion. In words: DNA damage and apoptosis in tumor lesions (LCM, caspase 3 cleavage IHC). Format: in vivo, mice. The source says: The signals of Caspase 3 cleaved […] in the lesion of each group of mice were in sharp contrast. Scale bar, 200 μm.
To investigate mechanisms directly supporting this senescence-associated pattern with expression and reversal of SASP in MIT-administered mice, we dissected tumors in animals treated with both drugs 7 days after the first PCC1 administration, and the time point of 7 days after administration was selected mainly because drug-resistant clones had not yet formed in cancer cells in the lesion at this time. […] As supporting evidence, when PCC1 was applied during treatment, caspase 3 cleavage activity was increased, which was a typical hallmark of apoptosis (FIG. 29).

The test system of test [4] is aged C57BL/6 mice. In words: Lifespan study in aged C57BL/6 mice. The note with it: from age 24-27 months. The test is classed as in vivo. As for the experimental part: Starting at 24 to 27 months of age, C57BL/6 mice received intraperitoneal administration of vehicle or PCC1 every two weeks (n=80 for vehicle group; n=91 for PCC1 group). The median survival of animals in each group was calculated and indicated. ****, P<0.0001.
Starting at 24 to 27 months of age, C57BL/6 mice received intraperitoneal administration of vehicle or PCC1 every two weeks (n=80 for vehicle group; n=91 for PCC1 group). The median lifetime survival of animals in each group was calculated and indicated. ****, P <0.0001.
For the cell transplantation study, we obtained […] male C57BL/6 mice by serial rearing in the SPF animal platform, with 4 to 5 animals per cage. We first sorted the mice by body weight from low to high, and then selected mice with similar body weights. Next, the mice were assigned to senescence (SEN) or control (CTRL) transplant treatment at each interval using a random number generator, while the middle mice were assigned to the other treatment, so that the body weights of the senescence and control transplant mice were matched. One month after cell transplantation, when the mice were 18 months old, physical function tests were performed. After that, no further testing was done on the mice other than checking their cages. The earliest deaths occurred approximately 2 months after the last physical function test. […]

Where [5] appears, read: PCC1 administered to mice treated with MIT.

Consider `Oc1cc(O)c2c(c1)O[C@H](c1ccc(O)c(O)c1)[C@H](O)[C@H]2c1c(O)cc(O)c2c1O[C@H](c1ccc(O)c(O)c1)[C@H](O)[C@H]2c1c(O)cc(O)c2c1O[C@H](c1ccc(O)c(O)c1)[C@H](O)C2` [PCC1, procyanidin C1], for which the “survival benefit of single agent” value in test [1] was “only a marginal extension of survival”. Besides, in test [2] (setting [5]), the “reduction in tumor volume compared with MIT” value came to 55.2% and the “reduction in tumor volume compared with placebo treatment” value worked out at 74.9%. For the same compound, the “reduction in tumor size compared to placebo” value in test [2] (single agent, i.p.) was “did not cause tumor shrinkage”. In test [3] (PCC1 administered to MIT-treated animals), the “indices of DNA damage or apoptosis” value is “significantly enhanced”. Moreover, the “caspase 3 cleavage activity” value in test [3] (PCC1 applied during MIT treatment) is listed as “increased”. For the same compound, the “degree of DNA damage and apoptosis” value in test [3] (single agent vs placebo, 7 days after first PCC1 administration) is reported as “could not induce DNA damage or cause apoptosis”. The “risk of death HR, PCC1 group/vehicle group” value in test [4] (P<0.0001) was determined as 0.35. The “median survival period after treatment, longer than vehicle group” value in test [4] (drug every two weeks) was determined as 64.2%.
